Source: ChEMBL document CHEMBL1149270, “Design and synthesis of a potent and selective peptidomimetic inhibitor of caspase-3” (J Med Chem, 2004)

Columns and labels:
[1] = target: T1, Caspase-4 (Homo sapiens) (UniProt P49662); experiment: Effect on recombinant caspase 4 activity at 210 nM relative to control
T1 sequence (whole entry): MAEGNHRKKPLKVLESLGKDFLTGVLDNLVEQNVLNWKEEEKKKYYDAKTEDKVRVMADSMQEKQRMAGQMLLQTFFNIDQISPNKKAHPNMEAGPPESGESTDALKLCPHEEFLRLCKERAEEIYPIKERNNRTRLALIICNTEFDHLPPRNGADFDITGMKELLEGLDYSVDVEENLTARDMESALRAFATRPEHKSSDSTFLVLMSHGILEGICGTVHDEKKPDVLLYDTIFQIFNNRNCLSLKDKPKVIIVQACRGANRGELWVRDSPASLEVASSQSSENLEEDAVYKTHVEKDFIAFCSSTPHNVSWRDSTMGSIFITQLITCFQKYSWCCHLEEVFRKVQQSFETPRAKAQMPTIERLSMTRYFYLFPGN

[2] = target: T2, Caspase-3 (Homo sapiens) (UniProt P42574); experiment: […] caspase 3 activity at 210 nM relative to control; design: scale not given: the % may be the effect or the level left
T2 sequence (whole entry): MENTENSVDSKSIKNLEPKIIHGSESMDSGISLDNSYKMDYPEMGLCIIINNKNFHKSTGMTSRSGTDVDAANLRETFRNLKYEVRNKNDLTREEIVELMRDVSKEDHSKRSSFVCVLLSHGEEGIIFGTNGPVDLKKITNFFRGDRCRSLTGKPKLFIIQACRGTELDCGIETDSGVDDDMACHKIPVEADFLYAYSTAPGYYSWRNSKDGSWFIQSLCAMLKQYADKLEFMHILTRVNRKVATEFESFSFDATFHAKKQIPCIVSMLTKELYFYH

[3] = target: T3, Caspase-6 (Homo sapiens) (UniProt P55212); experiment: Effect on recombinant caspase 6 activity at 210 nM relative to control
T3 sequence (whole entry): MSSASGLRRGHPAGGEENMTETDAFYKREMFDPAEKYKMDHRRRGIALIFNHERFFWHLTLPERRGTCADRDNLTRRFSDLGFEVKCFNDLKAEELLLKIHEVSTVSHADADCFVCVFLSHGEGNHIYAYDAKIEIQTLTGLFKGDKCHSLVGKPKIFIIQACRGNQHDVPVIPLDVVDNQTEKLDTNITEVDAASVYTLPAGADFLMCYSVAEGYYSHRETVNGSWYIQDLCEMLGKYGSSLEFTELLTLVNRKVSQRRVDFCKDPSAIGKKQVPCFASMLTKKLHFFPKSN

Q: CC(=O)N[C@@H](CC(=O)O)C(=O)NC1N=C(c2ccccc2)c2ccccc2N(CC(=O)N[C@H]2CC(=O)OC2O)C1=O (stereo partly drawn) was tested. Which Activity [1] did it give?
A: 95%

Q: What about the Activity [2] of the same compound?
A: 9%

Q: And the Activity [3]?
A: 58%
